Experimental data: ChEMBL document CHEMBL1151576, “Synthesis of cyclohexyl analogs of restricticin” (Bioorg Med Chem Lett, 1994)
Converted amounts (≈) assume the structure as drawn.

Experiments:
Assay type in all cases: functional
Cryptococcus neoformans [1] = experiment: In vitro antifungal activity against Cryptococcus neoformans CY1059 was determined at pH 7 for inoculum size of 1*10e4 cfu/ml by broth dilution method
Candida albicans [2] = experiment: In vitro antifungal activity against Candida albicans CY1005 was determined at pH 7 for inoculum size of 1*10e4 cfu/ml by broth dilution method
Cryptococcus neoformans [3] = experiment: In vitro antifungal activity against Cryptococcus neoformans CY1057 was determined at pH 7 for inoculum size of 1*10e4 cfu/ml by broth dilution method
Aspergillus fumigatus [4] = experiment: In vitro antifungal activity against Aspergillus fumigatus CF1004 was determined at pH 7 for inoculum size of 1*10e4 cfu/ml by broth dilution method
Aspergillus fumigatus [5] = experiment: In vitro antifungal activity against Aspergillus fumigatus CF1003 was determined at pH 7 for inoculum size of 1*10e4 cfu/ml by broth dilution method
Candida albicans [6] = experiment: In vitro antifungal activity against Candida albicans CY3003 was determined at pH 7 for inoculum size of 1*10e4 cfu/ml by broth dilution method
Candida albicans [7] = experiment: In vitro antifungal activity against Candida albicans CY1002 was determined at pH 7 for inoculum size of 1*10e4 cfu/ml by broth dilution method

SMILES | IC80 (Cryptococcus neoformans [1]) | IC80 (Candida albicans [2]) | IC80 (Cryptococcus neoformans [3]) | IC80 (Aspergillus fumigatus [4]) | IC80 (Aspergillus fumigatus [5]) | IC80 (Candida albicans [6]) | IC80 (Candida albicans [7])
CCc1ccc(CC[C@@H]2CCC(C)(C)[C@H](OC)[C@H]2Cn2ccnc2)cc1 | 0.14 µg/mL (≈ 0.395 µM) | 0.012 µg/mL (≈ 0.0338 µM) | 0.12 µg/mL (≈ 0.338 µM) | 0.19 µg/mL (≈ 0.536 µM) | 0.37 µg/mL (≈ 1.04 µM) | 0.0025 µg/mL (≈ 0.00705 µM) | 0.059 µg/mL (≈ 0.166 µM)
CCCCCCC/C=C/C[C@@H]1OC[C@H](C)[C@H](OC)[C@H]1COC(=O)CN | 3.2 µg/mL (≈ 9 µM) | 1.58 µg/mL (≈ 4.44 µM) | 2.19 µg/mL (≈ 6.16 µM) | 0.52 µg/mL (≈ 1.46 µM) | 0.73 µg/mL (≈ 2.05 µM) | 0.97 µg/mL (≈ 2.73 µM) | 1.8 µg/mL (≈ 5.06 µM)
CCc1ccc(CC[C@@H]2CCC(C)(C)[C@H](OC)[C@H]2Cn2cncn2)cc1 | 0.37 µg/mL (≈ 1.04 µM) | 0.042 µg/mL (≈ 0.118 µM) | 0.82 µg/mL (≈ 2.31 µM) | > 200 µg/mL | > 200 µg/mL | 0.012 µg/mL (≈ 0.0338 µM) | 0.098 µg/mL (≈ 0.276 µM)
OC(Cn1cncn1)(Cn1cncn1)c1ccc(F)cc1F [FLUCONAZOLE] | 11 µg/mL (≈ 35.9 µM) | 2.8 µg/mL (≈ 9.14 µM) | 3.8 µg/mL (≈ 12.4 µM) | 180 µg/mL (≈ 588 µM) | 200 µg/mL (≈ 653 µM) | 1.1 µg/mL (≈ 3.59 µM) | 2.6 µg/mL (≈ 8.49 µM)
CCC(C)n1ncn(-c2ccc(N3CCN(c4ccc(OC[C@H]5CO[C@](Cn6cncn6)(c6ccc(Cl)cc6Cl)O5)cc4)CC3)cc2)c1=O (stereo not given in full) [ITRACONAZOLE] | 0.046 µg/mL (≈ 0.0652 µM) | 0.0056 µg/mL (≈ 0.00794 µM) | 0.022 µg/mL (≈ 0.0312 µM) | < 0.0004 µg/mL | 0.02 µg/mL (≈ 0.0283 µM) | 0.0012 µg/mL (≈ 0.0017 µM) | 0.03 µg/mL (≈ 0.0425 µM)
